{
  "source": "patent US6017958A",
  "about": "“Method of treating malignant tumors with thyroxine analogues having no significant hormonal activity” (Octamer, Inc., priority 1997, dated 2000)",
  "key": {"E-ras 20 cells": {"test_system": "E-ras 20 cells", "experiment": "cells", "type": "in vitro ADME, bovine", "details": "Bos taurus, 24 hours, read-out: Extracellular DIME (concentration that causes 100% growth inhibition)", "protocol": "(§1) Monolayer cultures in 9.6 cm^2 wells (3 ml medium) were exposed to [^14 C]-DIME (10.55 mCi/mmol) for 24 hours, then washed 7 times with 1 ml medium containing unlabeled DIME. The cells were dissolved in 1 ml of 4% Na2 CO3 and 0.2 M NaOH and radioactivity measured by scintillation counting. Cell volume was determined by hematocrit and cell counting from parallel wells treated with unlabeled DIME.\n(§2) A striking property of DIME is its apparent selectivity for tumors in vivo. We performed drug metabolism and cellular DIME uptake tests to further characterize this property. Incubation of cells in culture with [^14 DIME, under conditions described previously, Bauer et al., 1996, \"Modification of growth related enzymatic pathways and apparent loss of tumorigenicity of a ras-transformed bovine endothelial cell line by treatment with 5-iodo-6-amino-1,2-benzopyrone (INH2 BP)\" Intl. J. Oncol. […] As shown in Table 9 the tumorigenic transformed cells in general took up DIME more rapidly than nontransformed cells (CV-1) or cells that were less sensitive to killing-by DIME (e.g. E-ras 20). […] On the other hand homogenates of organs of normal mice actively metabolize (de-esterify) DIME as illustrated in Table 10."}, "CV-1 cells": {"test_system": "CV-1 cells", "experiment": "cells", "type": "in vitro ADME", "details": "Cercopithecidae; CV-1, 24 hours; read-out: Extracellular DIME (concentration that causes 100% growth inhibition)", "protocol": "as §1, §2"}, "CV-1-Transformed cells": {"test_system": "CV-1-Transformed cells", "experiment": "cells", "type": "in vitro ADME", "details": "24 hours, read-out: Extracellular DIME (concentration that causes 100% growth inhibition)", "protocol": "as §1, §2"}, "MDA-MB-231 cells [1]": {"test_system": "MDA-MB-231 cells", "experiment": "cells", "type": "in vitro ADME", "details": "Homo sapiens; MDA-MB-231, 24 hours; read-out: Extracellular DIME (concentration that causes 100% growth inhibition)", "protocol": "as §1, §2"}, "MDA-MB-231 cells [2]": {"test_system": "MDA-MB-231 cells", "experiment": "Chromosome analysis by in situ hybridization", "type": "cell-based, human", "details": "1 μM", "protocol": "The MDA-MB-231 cell line was obtained from ATCC (Rockville, Md., USA) and cells were cultured in T-75 flasks at 37° C. in Minimum Essential Medium-alpha, supplemented with 10% FCS. In controls, not receiving DIME, 0.1 μg/ml colcemid was added to cultures for 4 hrs prior to the collection of metaphase-blocked cells and preparation of cell spreads. […] Cells (10^7) were isolated from T-75 trypsinization for 5 min with 0.025% trypsin, and sedimented by centrifugation, resuspended and kept in 10 ml of 75 mM KC1 at 37° C. for 10 min, resedimented, and fixed in 10 ml methanol-acetic acid, with four successive changes of methanol-acetic acid. An aliquot of the final cell suspension (100 μl) was dropped on ethanol-cleaned slides and air-dried.\nHuman chromosome-specific probes were produced by ONCOR (Gaithersburg, Md., USA). Hybridization was accomplished by a modification of the procedure described by Pinkel et al., 1986, \"Cytogentic Analysis Using Quantitative High-Sensitivity Fluorescence Hybridization,\" Proc. Natl. Acad. Sci. U.S.A. 83:2934-2938. The slide-mounted cells were treated with pepsin (20 μg/ml in 0.01 N HCl) at 37° C. for 10 min and then dehydrated in a 70%, 85% and 100% ethanol series, then DNA was denatured by immersion in 70% formamide, followed by 2X standard saline citrate (IX SSC is […], 0.015 M sodium citrate, pH 7.0) for 2 min. at 70° C., and dehydrated in ethanol as described above. The hybridization mixture in a 10 μl total volume consisted of 50% formamide, 2X SSC, 10% dextran sulfate, 0.5 μg herring sperm DNA, and 1-5 μg of proteinase K-treated human placental DNA. Both herring sperm DNA and human placental DNA were previously sonicated to 200-600 bp fragments, and -40 ng of digoxigeninylated probe DNA (denatured at 70° C. for 5 min) added, and incubated at 37° C. for 1 hr. This mixture was placed on slides containing the fixed cells, sealed under a coverslip, and incubated at 37° C. for 2 to 3 days. […] The slides were viewed in a Zeiss fluorescence microscope equipped with a multiple band pass filter (Chroma Technology, Brattleboro, Vt., USA) to determine the number of FISH signals in each nucleus."}, "noncancer cells": {"test_system": "noncancer cells", "experiment": "Replication of noncancer cells in culture", "type": "cell-based", "details": "cells growing in cultures; not shown"}, "[3]": {"test_system": "mouse pituitary thyrotropic tumors / non-malignant mouse pituitary adenoma", "details": "cited from earlier work"}},
  "data": [
    {"molecule": "COC(=O)c1cc(I)c(Oc2ccc(OC)cc2)c(I)c1", "note": "[Compound 1, Methyl 3,5-diiodo-4-(4'-methoxyphenoxy)benzoate]", "values": [
      {"measurement": "IC100", "setting": "E-ras 20 cells", "value": 10, "unit": "µM"},
      {"measurement": "IC100", "setting": "CV-1 cells", "value": 2, "unit": "µM"},
      {"measurement": "IC100", "setting": "CV-1-Transformed cells", "value": 2, "unit": "µM"},
      {"measurement": "IC100", "setting": "MDA-MB-231 cells [1]", "value": 2, "unit": "µM"},
      {"measurement": "effect on chromosomes (in situ hybridization)", "setting": "MDA-MB-231 cells [2]; 18 hrs", "value": "no detectable effect"},
      {"measurement": "chromosome breakage", "setting": "MDA-MB-231 cells [2]; 5 days", "value": "No evidence for chromosome breakage"},
      {"measurement": "chromosome-19 signals", "setting": "MDA-MB-231 cells [2]; 5 days, some cells", "value": "about 40 chromosome-19 signals"},
      {"measurement": "chromosomes per cell", "setting": "MDA-MB-231 cells [2]; 5 days, some cells", "value": "over 100 chromosomes"},
      {"measurement": "inhibition of replication of noncancer cells", "setting": "noncancer cells", "value": "inhibited to varying degrees"},
      {"measurement": "growth of mouse pituitary tumor", "setting": "[3]", "value": "no inhibitory activity"}
    ]}
  ]
}
